# Laboratory results from article PMC5965259 (Journal of medicinal chemistry, 2018).
# Tested on: bloodstream form T. brucei Lister 427
# Experiment: ATP–bioluminescence-based bloodstream form T. brucei cell viability assay
# Details: Trypanosoma brucei, 48 h, read-out: Tb427 EC50
row,Compound,EC50 [µM]
1,CCc1cc(Nc2cc(Cl)cc(Cl)c2)nc(N)n1 [Compound 9],4.7
2,CC(C)c1cc(Nc2cc(Cl)cc(Cl)c2)nc(N)n1 [Compound 10],4.7
3,Nc1nc(Nc2cc(Cl)cc(Cl)c2)cc(-c2ccccc2)n1 [Compound 11],7.2
4,Nc1nc(Nc2cc(Cl)cc(Cl)c2)cc(N2CCOCC2)n1 [Compound 12],13
5,Nc1nc(Nc2cc(Cl)cc(Cl)c2)cc(C(F)(F)F)n1 [Compound 14],10
6,Nc1nc2c(c(Nc3cc(Cl)cc(Cl)c3)n1)CCC2 [Compound 15],19
7,Cc1nc(N)nc(Nc2cc(Cl)cc(Cl)c2)c1C [Compound 16],17
8,Nc1cccc(Nc2cc(Cl)cc(Cl)c2)n1 [Compound 17],96
9,"Nc1ccnc(Nc2cc(Cl)cc(Cl)c2)c1 [Compound 18, N^2-(3,5-Dichlorophenyl)pyridine-2,4-diamine]",38
10,"Cc1cc(N)cc(Nc2cc(Cl)cc(Cl)c2)n1 [Compound 19, N^2-(3,5-Dichlorophenyl)-6-methylpyridine-2,4-diamine]",13
11,"Cc1cc(Nc2cc(Cl)cc(Cl)c2)cc(N)n1 [Compound 20, N^4-(3,5-Dichlorophenyl)-6-methylpyridine-2,4-diamine]",2.2
12,"Nc1cnccc1Nc1cc(Cl)cc(Cl)c1 [Compound 22, N^4-(3,5-Dichlorophenyl)pyridine-3,4-diamine]",18
13,"CNc1nc(C)cc(Nc2cc(Cl)cc(Cl)c2)n1 [Compound 24, N^4-(3,5-Dichlorophenyl)-N^2,6-dimethylpyrimidine-2,4-diamine]",2.7
14,"Cc1cc(Nc2cc(Cl)cc(Cl)c2)nc(N(C)C)n1 [Compound 25, N^4-(3,5-Dichlorophenyl)-N^2,N^2,6-trimethylpyrimidine-2,4-diamine]",14
15,"Nc1cc(Nc2cc(Cl)cc(Cl)c2)nc(N)n1 [Compound 26, N^4-(3,5-Dichlorophenyl)pyrimidine-2,4,6-triamine]",14
16,"Cc1nc(N)cc(Nc2cc(Cl)cc(Br)c2)n1 [Compound 27, N^4-(3-Bromo-5-chlorophenyl)-2-methylpyrimidine-4,6-diamine]",20
17,"Cc1cc(N(C)c2cc(Cl)cc(Cl)c2)nc(N)n1 [Compound 28, N^4-(3,5-Dichlorophenyl)-N^4,6-dimethylpyrimidine-2,4-diamine]",38
18,"Cc1cc(Sc2cc(Cl)cc(Cl)c2)nc(N)n1 [Compound 29, 4-((3,5-Dichlorophenyl)thio)-6-methylpyrimidin-2-amine]",> 25
19,"Cc1cc(NCc2cc(Cl)cc(Cl)c2)nc(N)n1 [Compound 30, N^4-(3,5-Dichlorobenzyl)-6-methylpyrimidine-2,4-diamine]",11
20,"Cc1cc(NCCc2cc(Cl)cc(Cl)c2)nc(N)n1 [Compound 31, N^4-(3,5-Dichlorophenethyl)-6-methylpyrimidine-2,4-diamine]",5.7
21,"Cc1cc(Nc2cc(Cl)cc(Br)c2)nc(N)n1 [Compound 32, N^4-(3-Bromo-5-chlorophenyl)-6-methylpyrimidine-2,4-diamine]",4.7

row,Compound,EC50 [µM]
1,"Cc1cc(Nc2cc(Cl)cc(C#N)c2)nc(N)n1 [Compound 33, 3-((2-Amino-6-methylpyrimidin-4-yl)amino)-5-chlorobenzonitrile]",12
2,"Cc1cc(Nc2cc(Cl)cc(C(F)(F)F)c2)nc(N)n1 [Compound 34, N^4-(3-Chloro-5-(trifluoromethyl)phenyl)-6-methylpyrimidine-2,4-diamine]",13
3,"Cc1cc(Nc2cc(Cl)cc(-c3ccccc3)c2)nc(N)n1 [Compound 35, N^4-(5-Chloro-[1,1′-biphenyl]-3-yl)-6-methylpyrimidine-2,4-diamine]",4.5
4,"Cc1cc(Nc2cc(Cl)cc(S(F)(F)(F)(F)F)c2)nc(N)n1 [Compound 36, N^4-(3-Chloro-5-(pentafluoro-λ^6-sulfaneyl)phenyl)-6-methylpyrimidine-2,4-diamine]",13
5,"Cc1cc(Nc2cc(Br)cc(S(F)(F)(F)(F)F)c2)nc(N)n1 [Compound 37, N^4-(3-Bromo-5-(pentafluoro-λ^6-sulfaneyl)phenyl)-6-methylpyrimidine-2,4-diamine]",0.45
6,"CCc1cc(Br)cc(Nc2cc(C)nc(N)n2)c1 [Compound 38, N^4-(3-Bromo-5-ethylphenyl)-6-methylpyrimidine-2,4-diamine]",5.5
7,"CCOc1cc(Br)cc(Nc2cc(C)nc(N)n2)c1 [Compound 39, N^4-(3-Bromo-5-ethoxyphenyl)-6-methylpyrimidine-2,4-diamine]",4.4
8,"Cc1cc(Nc2cc(Br)cc(OCC(F)(F)F)c2)nc(N)n1 [Compound 40, N^4-(3-Bromo-5-(2,2,2-trifluoroethoxy)phenyl)-6-methylpyrimidine-2,4-diamine]",4.2
9,"C=CCOc1cc(Br)cc(Nc2cc(C)nc(N)n2)c1 [Compound 41, N^4-(3-(Allyloxy)-5-bromophenyl)-6-methylpyrimidine-2,4-diamine]",4.4
10,"CCCCOc1cc(Br)cc(Nc2cc(C)nc(N)n2)c1 [Compound 42, N^4-(3-Bromo-5-butoxyphenyl)-6-methylpyrimidine-2,4-diamine]",1.9
11,"Cc1cc(Nc2cc(Br)cc(OCC(C)C)c2)nc(N)n1 [Compound 43, N^4-(3-Bromo-5-isobutoxyphenyl)-6-methylpyrimidine-2,4-diamine]",4.4
12,"Cc1cc(Nc2cc(S(C)(=O)=O)cc(S(C)(=O)=O)c2)nc(N)n1 [Compound 45, N^4-(3,5-Bis(methylsulfonyl)phenyl)-6-methylpyrimidine-2,4-diamine]",> 100
13,"Cc1cc(Nc2cc(C(F)(F)F)cc(C(F)(F)F)c2)nc(N)n1 [Compound 46, N^4-(3,5-Bis(trifluoromethyl)phenyl)-6-methylpyrimidine-2,4-diamine]",14
14,"COc1cc(Nc2cc(C)nc(N)n2)cc(OC)c1 [Compound 47, N^4-(3,5-Dimethoxyphenyl)-6-methylpyrimidine-2,4-diamine]",41
15,"Cc1cc(Nc2cc(C(=O)O)cc(C(=O)O)c2)nc(N)n1 [Compound 48, 5-((2-Amino-6-methylpyrimidin-4-yl)amino)isophthalic acid]",> 100
16,"COC(=O)c1cc(Nc2cc(C)nc(N)n2)cc(C(=O)OC)c1 [Compound 49, Dimethyl 5-((2-amino-6-methylpyrimidin-4-yl)amino)isophthalate]",42
17,"Cc1cc(Nc2cc(-c3ccccc3)cc(-c3ccccc3)c2)nc(N)n1 [Compound 50, N^4-([1,1′:3′,1″-Terphenyl]-5′-yl)-6-methylpyrimidine-2,4-diamine]",1.5
18,"Cc1cc(Nc2cc(C(=O)Nc3cc(Cl)cc(Cl)c3)cc(C(=O)Nc3cc(Cl)cc(Cl)c3)c2)nc(N)n1 [Compound 51, 5-((2-Amino-6-methylpyrimidin-4-yl)amino)-N^1,N^3-bis(3,5-dichlorophenyl)isophthalamide]",2
19,"Cc1cc(C)cc(Nc2cc(C)nc(N)n2)c1 [Compound 52, N^4-(3,5-Dimethylphenyl)-6-methylpyrimidine-2,4-diamine]",19
20,"Cc1cc(Nc2cc(C(C)(C)C)cc(C(C)(C)C)c2)nc(N)n1 [Compound 53, N^4-(3,5-Di-tert-butylphenyl)-6-methylpyrimidine-2,4-diamine]",4.1
